Assay type in all cases: cell-based
The target in test [1] is T1, hGLP-1R (Homo sapiens, UniProt P43220). Description: Functional cAMP activation in the presence of 0.1% casein (no HSA). As to conditions: in the presence of 0.1% casein (no HSA); geometric mean; read-out: Relative cAMP EC50, hGLP-1R.
Test [2] concerns the target T2, hGIPR (Homo sapiens, UniProt P48546).
T2 sequence (P48546 22-466): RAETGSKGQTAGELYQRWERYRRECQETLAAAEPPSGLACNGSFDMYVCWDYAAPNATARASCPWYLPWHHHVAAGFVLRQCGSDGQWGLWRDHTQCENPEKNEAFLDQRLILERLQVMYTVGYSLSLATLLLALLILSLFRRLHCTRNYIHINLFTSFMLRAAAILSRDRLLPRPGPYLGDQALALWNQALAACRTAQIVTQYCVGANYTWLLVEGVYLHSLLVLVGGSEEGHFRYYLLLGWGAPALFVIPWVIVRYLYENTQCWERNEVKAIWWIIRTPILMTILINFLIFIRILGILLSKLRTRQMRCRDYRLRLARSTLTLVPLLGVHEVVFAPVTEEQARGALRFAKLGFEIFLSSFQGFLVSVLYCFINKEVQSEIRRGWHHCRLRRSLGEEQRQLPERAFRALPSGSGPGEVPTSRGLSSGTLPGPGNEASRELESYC
The description is as above. The note with it: in the presence of 0.1% casein (no HSA); geometric mean; read-out: Relative cAMP EC50, hGIPR.

Test [3] concerns the target T1, hGLP-1R. Description: Functional cAMP activity in the presence of 1% HSA. The note with it: read-out: cAMP Rel EC50, hGLP-1R.
The next test concerns the target hGcgR (Homo sapiens, UniProt P47871). As to the kind of experiment: Functional cAMP activation in the presence of 0.1% casein (no HSA). The note with it: in the presence of 0.1% casein (no HSA); geometric mean; read-out: Relative cAMP EC50, hGcgR.
The next test addresses human GcgR (Homo sapiens, UniProt P47871). As to the kind of experiment: Functional cAMP activity in the presence of 1% HSA. As to conditions: read-out: cAMP Rel EC50, hGcgR.
The target of test [4] is T2, hGIPR. As to the kind of experiment: Functional cAMP activity in the presence of 1% HSA. The note with it: read-out: cAMP Rel EC50, hGIPR.

Starred links: 1 amine or outer side, 2 acyl side, 3 side chain; linkers in the order of their positions; H or OH if unused. Non-standard residues stand in square brackets, D forms with d. Groups on a side chain read outwards from the residue. *: point of attachment. C20 diacid = O=C(O)CCCCCCCCCCCCCCCCCCC(=O)*; C18 diacid = O=C(O)CCCCCCCCCCCCCCCCC(=O)*; γGlu = O=C(O)[C@H](CCC(=O)[*:2])N[*:1]; 4Pal = N[C@@H](Cc1ccncc1)C(=O)O; αMeL = CC(C)C[C@](C)(N)C(=O)O; Orn = NCCC[C@H](N)C(=O)O; Dab = NCC[C@H](N)C(=O)O; Dap = NC[C@H](N)C(=O)O; AEEA = NCCOCCOCC(=O)O; Aib = CC(C)(N)C(=O)O
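Wherever Relative cAMP EC50, hGIPR is given: intracellular cAMP rise after 30 min at 37 °C read by HTRF against a standard curve, scaled between buffer alone (0%) and top control ligand concentration (100%), four-parameter fit.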
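Wherever Relative cAMP EC50, hGLP-1R is given: intracellular cAMP rise after 30 min at 37 °C read by HTRF, normalized between buffer only (0%) and maximal control ligand (100%), four-parameter variable-slope fit.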
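Wherever Relative cAMP EC50, hGcgR is given: intracellular cAMP rise after 30 min at 37 °C, read by HTRF against a cAMP standard curve, scaled from buffer only (0%) to maximal control ligand response (100%).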

T1 sequence (P43220 24-463): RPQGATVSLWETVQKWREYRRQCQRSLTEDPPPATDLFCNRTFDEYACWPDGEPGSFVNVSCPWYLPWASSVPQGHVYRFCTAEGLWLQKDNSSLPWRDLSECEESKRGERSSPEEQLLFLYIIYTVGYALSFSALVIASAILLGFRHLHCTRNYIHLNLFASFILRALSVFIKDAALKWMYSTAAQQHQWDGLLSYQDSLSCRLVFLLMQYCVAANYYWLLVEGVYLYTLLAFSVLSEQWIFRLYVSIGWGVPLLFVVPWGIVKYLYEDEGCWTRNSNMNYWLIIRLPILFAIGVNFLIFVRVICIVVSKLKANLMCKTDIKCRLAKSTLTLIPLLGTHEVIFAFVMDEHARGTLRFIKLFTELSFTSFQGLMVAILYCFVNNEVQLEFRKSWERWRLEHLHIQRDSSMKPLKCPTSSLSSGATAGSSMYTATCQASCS
human GcgR, sequence (P47871 26-477): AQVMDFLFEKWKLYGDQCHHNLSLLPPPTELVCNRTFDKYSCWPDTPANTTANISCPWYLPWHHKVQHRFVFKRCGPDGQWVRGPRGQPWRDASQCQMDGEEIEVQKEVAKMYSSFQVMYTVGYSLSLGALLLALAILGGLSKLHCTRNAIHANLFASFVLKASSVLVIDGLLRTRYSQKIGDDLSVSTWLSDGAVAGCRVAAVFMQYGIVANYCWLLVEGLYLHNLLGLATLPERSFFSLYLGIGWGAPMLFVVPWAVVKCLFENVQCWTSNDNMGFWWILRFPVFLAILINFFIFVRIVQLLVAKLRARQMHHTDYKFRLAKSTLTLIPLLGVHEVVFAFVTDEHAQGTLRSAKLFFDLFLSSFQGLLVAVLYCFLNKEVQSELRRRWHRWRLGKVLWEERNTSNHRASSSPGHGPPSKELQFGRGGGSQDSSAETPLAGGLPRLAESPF
hGcgR, sequence (P47871 26-477): as above

Broadly, the EC50 is the concentration giving half of the maximal effect. “H-Y[Aib]QGTFTSDFSK[αMeL]LDKK([AEEA-γGlu-C20 diacid])AQ[Aib]AFIEYLLEGGPSSGEPPPGEG[AEEA]-NH2 [Example 54]”: the EC50 at hGLP-1R [1] worked out at 3.95 nM; at hGIPR [2], 0.502 nM; on hGLP-1R [3], 1300 nM; at hGcgR it was 3.77 nM; on human GcgR, 1940 nM; at hGIPR [4] it was 168 nM.

On to “H-Y[Aib]QGTFTSDFS[Dab][αMeL]LDKK([AEEA-γGlu-C18 diacid])AQ[Aib]AFIEYLIE[Aib]GPSSGAPPPSGS-NH2 [Example 799]”, for which the EC50 at hGLP-1R [1] stood at 0.462 nM; on hGIPR [2] it was 0.0668 nM; on hGLP-1R [3], 179 nM; on hGcgR it was 1.64 nM; at human GcgR, 574 nM; at hGIPR [4], 18.4 nM.

As to “H-Y[Aib]QGTFTSDFS[Dab][αMeL]LDKK([AEEA-γGlu-C18 diacid])AQ[Aib]AFIEYLLE[Aib]GPSSGAPPPSGS-NH2 [Example 133]”, the EC50 was 3.6 nM at hGLP-1R [1]; 0.15 nM on hGIPR [2]; 1180 nM at hGLP-1R [3]; 1.64 nM on hGcgR; 642 nM on human GcgR; 23.1 nM on hGIPR [4].

As for “H-Y[Aib]QGTFTSDFS[Dap][αMeL]LDKK([AEEA-γGlu-C18 diacid])AQ[Aib]AFIEYLIE[Aib]GPSSGAPPPSGS-NH2 [Example 800]”, the EC50 worked out at 0.486 nM on hGLP-1R [1]; 0.283 nM at hGIPR [2]; 164 nM on hGLP-1R [3]; 21 nM at hGcgR; 2500 nM on human GcgR; 40.2 nM at hGIPR [4].

For “H-Y[Aib]QGTFTSDFS[Dap][αMeL]LDKK([γGlu-γGlu-C18 diacid])AQ[Aib]AFIEYLLE[Aib]GPSSGAPPPSGS-NH2 [Example 203]”, the EC50 at hGLP-1R [1] turned out to be 4.72 nM; at hGIPR [2], 0.125 nM; at hGLP-1R [3] it was 532 nM; at hGcgR, 6.92 nM; at human GcgR, 1160 nM; at hGIPR [4] it was 19 nM.

On to “H-Y[Aib]QGTFTSDFS[Orn][αMeL]LDKK([AEEA-AEEA-γGlu-C18 diacid])AQ[Aib]AFIEWLLEGGHSSGAPPPGGE-NH2 [Example 271]”, for which the EC50 on hGLP-1R [1] turned out to be 5 nM; on hGIPR [2], 0.152 nM; at hGLP-1R [3], 887 nM; on hGcgR it was 8.51 nM; on human GcgR it was 2680 nM; on hGIPR [4], 15.7 nM.

In the case of “H-Y[Aib]QGTFTSDFS[Orn][αMeL]LDKK([AEEA-AEEA-γGlu-C18 diacid])AQ[Aib]AFIEYLLE[Aib]GESSGAPPPSGT-NH2 [Example 180]”, the half-maximal effective concentration (EC50) at hGLP-1R [1] was determined as 5.08 nM; on hGIPR [2] it was 0.14 nM; at hGLP-1R [3], 891 nM; on hGcgR, 2.44 nM; at human GcgR, 1320 nM; at hGIPR [4], 24 nM.

“H-Y[Aib]QGTFTSDFS[Orn][αMeL]LDKK([AEEA-AEEA-γGlu-C18 diacid])AQ[Aib]AFIEYLLE[Aib]GPSSGAPPPEGS-NH2 [Example 194]”: the EC50 was 4.69 nM at hGLP-1R [1]; 0.212 nM on hGIPR [2]; 697 nM on hGLP-1R [3]; 4.32 nM on hGcgR; 813 nM on human GcgR; 19.7 nM on hGIPR [4].

With “H-Y[Aib]QGTFTSDFS[Orn][αMeL]LDKK([AEEA-AEEA-γGlu-C18 diacid])AQ[Aib]AFIEYLLE[Aib]GPSSGEPPPEGS-NH2 [Example 195]”, the EC50 on hGLP-1R [1] was found to be 6.13 nM; at hGIPR [2], 0.145 nM; at hGLP-1R [3], 829 nM; on hGcgR, 3.1 nM; at human GcgR it was 605 nM; at hGIPR [4], 28.8 nM.

As to “H-Y[Aib]QGTFTSDFS[Orn][αMeL]LDKK([AEEA-AEEA-γGlu-C18 diacid])AQ[Aib]AFIEYLLE[dA]GPSSGEPPPSGT-NH2 [Example 156]”, the EC50 stood at 3.37 nM on hGLP-1R [1]; 0.208 nM on hGIPR [2]; 695 nM on hGLP-1R [3]; 3.62 nM on hGcgR; 1520 nM on human GcgR; 25.8 nM on hGIPR [4].

For “H-Y[Aib]QGTFTSDFS[Orn][αMeL]LDKK([AEEA-AEEA-γGlu-C18 diacid])AQ[Aib]AFIEYLLE[dA]GPSSG[4Pal]PPPSGH-NH2 [Example 257]”, the EC50 on hGLP-1R [1] was 2.66 nM; at hGIPR [2], 0.135 nM; at hGLP-1R [3], 388 nM; at hGcgR, 7.36 nM; at human GcgR it was 1210 nM; at hGIPR [4], 21 nM.

Turning to “H-Y[Aib]QGTFTSDFS[Orn][αMeL]LDKK([AEEA-AEEA-γGlu-C18 diacid])AQ[Aib]AFIEYLLE[dA]GPSSG[4Pal]PPPSG[4Pal]-NH2 [Example 258]”, the EC50 was 2.71 nM on hGLP-1R [1]; 0.154 nM at hGIPR [2]; 492 nM on hGLP-1R [3]; 7.15 nM on hGcgR; 1280 nM at human GcgR; 23.3 nM at hGIPR [4].

On to “H-Y[Aib]QGTFTSDFS[Orn][αMeL]LDKK([AEEA-γGlu-C18 diacid])AQ[Aib]AFIEWLLEGGESSGEPPPSGE-NH2 [Example 123]”, for which the EC50 at hGLP-1R [1] was determined as 4.82 nM; on hGIPR [2], 0.531 nM; at hGLP-1R [3] it was 1500 nM; at hGcgR, 4.55 nM; at human GcgR it was 1740 nM; on hGIPR [4], 94.6 nM.

For the substance “H-Y[Aib]QGTFTSDFS[Orn][αMeL]LDKK([AEEA-γGlu-C18 diacid])AQ[Aib]AFIEWLLEGGHSSGAPPPSGH-NH2 [Example 269]”, the EC50 at hGLP-1R [1] came to 3.23 nM; on hGIPR [2], 0.288 nM; at hGLP-1R [3], 428 nM; on hGcgR it was 7.69 nM; on human GcgR, 1100 nM; on hGIPR [4], 21.9 nM.

For “H-Y[Aib]QGTFTSDFS[Orn][αMeL]LDKK([AEEA-γGlu-C18 diacid])AQ[Aib]AFIEWLLEGGHSSGAPPPSGS-NH2 [Example 170]”, the EC50 at hGLP-1R [1] is 4.11 nM; at hGIPR [2], 0.401 nM; on hGLP-1R [3], 361 nM; at hGcgR it was 5.29 nM; on human GcgR, 1800 nM; at hGIPR [4], 43.5 nM.

As to “H-Y[Aib]QGTFTSDFS[Orn][αMeL]LDKK([AEEA-γGlu-C18 diacid])AQ[Aib]AFIEWLLEGGHSSGEPPPEGS-NH2 [Example 127]”, the 50% effective concentration (EC50) on hGLP-1R [1] came to 4.8 nM; at hGIPR [2], 0.312 nM; on hGLP-1R [3], 1000 nM; on hGcgR it was 4.35 nM; at human GcgR it was 1010 nM; at hGIPR [4], 62.9 nM.

In the case of “H-Y[Aib]QGTFTSDFS[Orn][αMeL]LDKK([AEEA-γGlu-C18 diacid])AQ[Aib]AFIEWLLEGGPSSGAPPPEGE-NH2 [Example 120]”, the EC50 at hGLP-1R [1] was 4.77 nM; on hGIPR [2], 0.44 nM; at hGLP-1R [3] it was 664 nM; on hGcgR, 5.85 nM; at human GcgR, 1540 nM; on hGIPR [4] it was 33.4 nM.

Regarding “H-Y[Aib]QGTFTSDFS[Orn][αMeL]LDKK([AEEA-γGlu-C18 diacid])AQ[Aib]AFIEWLLEGGPSSGAPPPEG[4Pal]-NH2 [Example 262]”, the EC50 on hGLP-1R [1] is 4.39 nM; on hGIPR [2] it was 0.232 nM; on hGLP-1R [3], 400 nM; at hGcgR it was 9.77 nM; at human GcgR, 720 nM; at hGIPR [4] it was 40.4 nM.

For “H-Y[Aib]QGTFTSDFS[Orn][αMeL]LDKK([AEEA-γGlu-C18 diacid])AQ[Aib]AFIEWLLEGGSSSGAPPPGGT-NH2 [Example 272]”, the EC50 came to 2.62 nM on hGLP-1R [1]; 0.254 nM at hGIPR [2]; 486 nM at hGLP-1R [3]; 7.91 nM on hGcgR; 1540 nM on human GcgR; 36.3 nM on hGIPR [4].

Take “H-Y[Aib]QGTFTSDFS[Orn][αMeL]LDKK([AEEA-γGlu-C18 diacid])AQ[Aib]AFIEWLLEGGSSSGAPPPSGH-NH2 [Example 270]”: the EC50 on hGLP-1R [1] was 3.2 nM; on hGIPR [2], 0.26 nM; at hGLP-1R [3], 658 nM; at hGcgR, 5 nM; on human GcgR, 1060 nM; on hGIPR [4] it was 36.5 nM.

Consider “H-Y[Aib]QGTFTSDFS[Orn][αMeL]LDKK([AEEA-γGlu-C18 diacid])AQ[Aib]AFIEYLIE[Aib]SPSSGAPPPSGS-NH2 [Example 804]”, for which the concentration giving a half-maximal response (EC50) came out at 0.915 nM on hGLP-1R [1]; 0.0751 nM at hGIPR [2]; 161 nM on hGLP-1R [3]; 11.5 nM on hGcgR; 2310 nM at human GcgR; 17.6 nM on hGIPR [4].

Turning to “H-Y[Aib]QGTFTSDFS[Orn][αMeL]LDKK([AEEA-γGlu-C18 diacid])AQ[Aib]AFIEYLLAGGPSSGAPPPSGE[AEEA]-NH2 [Example 91]”, the EC50 on hGLP-1R [1] amounted to 3.39 nM; on hGIPR [2], 0.243 nM; on hGLP-1R [3], 356 nM; at hGcgR, 9.13 nM; on human GcgR, 1200 nM; on hGIPR [4], 23.9 nM.

Source of the values: patent publication US20240270821A1, “GIP/GLP1/GCG TRI-RECEPTOR AGONISTS AND USES THEREOF” (priority 2023, published 2024).
